{"source": "patent US20250352490A1", "about": "“P-SELECTIN TARGETED NANOPARTICLES AND USES THEREOF” (Ramot at Tel-Aviv University Ltd., priority 2023, published 2025)", "key": {"[1]": {"details": "in vivo; cited from earlier work"}, "[2]": {"system": "melanoma patients", "details": "cited from earlier work"}, "[3]": {"system": "D4M.3A cells", "experiment": "Proliferation assay (cell count after 72 h), D4M.3A", "type": "cell-based, murine", "details": "Mus musculus, read-out: IC50 values", "description": "(§1) Cell culture: Murine primary melanoma […].3A cells were obtained from Dartmouth College, Hanover. […].3A cells were cultured in Advanced DMEM growth media supplemented with 5% FBS, 100 μg/mL streptomycin, 100 IU/mL penicillin, 12.5 IU/mL nystatin, and 1% GlutaMAXTM (Gibco, Waltham, MA, USA). Human metastatic melanoma 131/4-5B1 cells were obtained from University of Toronto, Canada, and were cultured in RPMI 1640 medium supplemented with 10% FBS, 100 μg/mL streptomycin, 100 IU/mL penicillin, 12.5 IU/mL nystatin, and 2 mM L-Glutamine (Biological Industries Ltd, Kibbutz Beit Haemek, Israel). Human primary melanoma A375 cells were obtained from ATCC and were cultured in RPMI 1640 medium supplemented with 10% FBS, 100 μg/mL streptomycin, 100 IU/mL penicillin, 12.5 IU/mL nystatin, and 2 mM L-Glutamine. […] Following 72 hours incubation, the cells were counted using a Z1 Coulter Counter (Beckman Coulter). […] Isobolograns and combination index: The interactions between DBF and TRM were evaluated by constructing isobolograms for different drugs ratios and calculating their combination index (CI).^51 First, the inhibitory concentration (IC) values of treatment with DBF, TRM, and their combinations were calculated from the proliferation assays. […]"}, "[4]": {"system": "pERK and ki67 in tumors", "details": "30 mg/kg DBF daily, cited from earlier work"}, "[5]": {"system": "A375 cells", "experiment": "Proliferation assay (cell count after 72 h), A375", "type": "cell-based", "details": "Homo sapiens, read-out: IC50 values", "description": "as §1"}, "[6]": {"system": "PD-L1 expression in EMT6 cells", "experiment": "PD-L1 expression in EMT6 cells by flow cytometry", "type": "cell-based, murine", "description": "PD-L1 expression after treatments with talazoparib: EMT6 murine mammary carcinoma cells (obtained from ATCC) were incubated with talazoparib (0.1 nM, 10 nM, and 100 nM) for 24-72 hours and then harvested using FACS buffer (protein levels). 1×10^6 cells were incubated with anti-PD-L1 at 1 μg/ml antibody concentration (Mouse PD-L1/B7-H1 Alexa Fluor® 647-conjugated Antibody; R & D Systems #FAB90781R) or isotype antibody (Rabbit IgG Alexa Fluor®647-conjugated Antibody, R & D Systems #IC1051R) for 1 hour on ice. The cells were washed twice with FACS buffer and the fluorescence intensity was measured by Attune NxT Flow Cytometer and analyzed by Kaluza software. All treatments were compared to the secondary antibody only or to the corresponding isotype control.\nPD-L1i blocking activity: In order to assess the PD-L1i small molecule inhibition activity, murine EMT6 cells were seeded in 24-well plate (2×10^4 cells/well). After 24 hours, the medium was replaced with medium containing PD-L1i (SM56; [Acúrcio et al. Journal for ImmunoTherapy of Cancer, 10(7), e004695 (2022)]) for 24-72 hours. The cells were then harvested with FACS buffer, washed and resuspended in FACS buffer. EMT6 cells (1×10^6) were incubated with anti-PD-L1 at 1 μg/ml antibody concentration (Mouse PD-L1/B7-H1 Alexa Fluor®647-conjugated Antibody; R & D Systems #FAB90781R) or isotype antibody (Rabbit IgG Alexa Fluor®647-conjugated Antibody, R & D Systems #IC1051R) for 1 hour on ice. Additionally, to evaluate synergistic activity of PD-L1i with talazoparib, EMT6 cells were treated with the combination of PD-L1i and talazoparib for 48 hours. Later, same antibody and incubation conditions described previously were followed. These experiments were reproduced trice, and the data represent the mean±SD."}, "[7]": {"system": "MDA-MB-436 cells", "experiment": "Proliferation assay, MDA-MB-436", "type": "cell-based", "details": "Homo sapiens; MDA-MB-436 (BRCA-mutated), 72 hours", "description": "(§2) Human MDA-MB-231 and MDA-MB-436, and murine 4T1 and EMT6 cells were obtained from the ATCC. EMT6, MDA-MB-231 and MDA-MB-436 cells were cultured in DMEM supplemented with 10% FBS, 100 IU/mL penicillin, 100 μg/mL streptomycin, 12.5 U/mL Nystatin, 2 mM L-glutamine. 4T1 cells were cultured in RPMI supplemented with 10% FBS, 100 IU/mL Penicillin, 100 μg/mL Streptomycin, 12.5 U/mL Nystatin, 2 mM L-glutamine, 1 mM sodium pyruvate and 10 mM HEPES Buffer. For MDA-MB-436, MDA-MB-23, 4T1 and EMT6, cells were seeded in 24-well plates (2.5×10^4, 2.5×10^4, 1×10^4, 2×10^3 cells/well, respectively) and incubated for 24 hours. Then, the cultured medium was replaced with a medium containing a serial dilution of talazoparib, talazoparib-loaded NPs or blank NPs (carrier only) for additional 72 hours. Untreated (control) cells were supplemented with fresh medium containing 0.1% DMSO. The cells were counted using a Z1 Coulter Counter (Beckman Coulter). Each treatment was assayed in triplicates, N=3."}, "[8]": {"system": "4T1 cells", "experiment": "Proliferation assay, 4T1", "type": "cell-based, murine", "details": "Mus musculus; 4T1 (BRCA wild-type), 72 hours", "description": "as §2"}, "[9]": {"system": "PD-L1 RNA in EMT6 cells", "experiment": "PD-L1 mRNA in EMT6 cells by q-Real time PCR", "type": "cell-based, murine", "details": "10 nM, 24-72 hours", "description": "q-Real time PCR: Total RNA was isolated from cultured cells using the Direct-zol RNA Miniprep Plus (Zymo Research), according to the manufacturer's instructions. Once isolated, one microgram of RNA was reverse transcribed to cDNA using qScript cDNA synthesis kit (Quantabio, MA, USA). The cDNA was further diluted (1:50 in DNase/RNase-Free Water) for the qPCR. PD-L1 mRNA levels were assessed by SYBR green real-time PCR (StepOne plus; Thermo Fisher Scientific, Waltham, MA, USA) using PerFecTa SYBR Green FastMix ROX (Quanta BioSciences) and the following custom primers: murine PD-L1: forward, 5′-[…]-3′, reverse, 5′-[…]-3′. GAPDH: forward, 5′-ATTCCACCCATGGAATTC-3′, reverse, 5′-[…]-′3."}, "[10]": {"system": "PD-L1 localizations in EMT6 cells", "experiment": "dSTORM imaging of PD-L1 in EMT6 cells", "type": "cell-based, murine", "details": "increasing concentrations, 48 hours", "description": "dSTORM imaging of PD-L1 after exposure of EMT6 cells to talazoparib: EMT6 cells were seeded in Ibidi μ-slide 8 well glass bottom chambered coverslips at a density of 5000 cells per well. After 24 hours incubation, cells were treated with Talazoparib for 48 hours ([…]). After 48 hours cells were washed 1× with PBS and fixed using 3.7% formaldehyde solution for 10 minutes at room temperature. After fixation, cells were washed trice with PBS and incubated with 5% BSA solution overnight at 4° C. […] Between 6 and 10 cells were imaged for each condition. dSTORM images were analyzed with the Nikon NIS elements software (version 5.21.01). dSTORM localizations were detected using Gaussian fitting, with a minimum intensity threshold height of 150 for the 647 nm channel. Molecules detected in 5 consecutive frames were considered as a single blinking event, while molecules detected in more than 5 frames were discarded. […] The resulting x-y coordinates of the detected localizations were imported and run through a custom MATLAB scrip to quantify the localization density per cell. Each cell was manually selected by drawing an ROI around the cell contour (detected in the 488 channel). […]"}, "[11]": {"system": "EMT6 cells", "experiment": "Proliferation assay, EMT6", "type": "cell-based, murine", "details": "Mus musculus", "description": "as §2"}, "[12]": {"system": "MDA-MB-231 cells", "experiment": "Proliferation assay, MDA-MB-231", "type": "cell-based", "details": "Homo sapiens; MDA-MB-231 (BRCA wild-type), 72 hours", "description": "as §2"}, "[13]": {"system": "mCherry-labeled EMT6 3D spheroids", "experiment": "mCherry-labeled EMT6 3D spheroids sprouting", "type": "cell-based, murine", "details": "Mus musculus, compared to the control", "description": "Analysis of mCherry-labeled EMT6 3D spheroids sprouting: 3D spheroid of EMT6 cells (2000 cells/spheroid) were prepared in DMEM medium supplemented with 0.24 w/v % methyl cellulose. The cells were deposited in 25 μL droplets into the inner side of a 20 mm dish and incubated for 48 hours at 37° C. when the plate is facing upside down to allow for spheroid formation. The spheroids were then embedded in Matrigel®, seeded in a 96-well plate, and monitored for cell invasion into the Matrigel®. The 3D spheroids were treated with talazoparib (1 nM, 100 nM and 1 μM) and their sprouting in the Matrigel® was evaluated by measuring the % red area with ImageJ software."}}, "note": "Like-named read-outs stand apart in the source and are kept apart here.", "data": [{"molecule": "CC(C)(C)c1nc(-c2cccc(NS(=O)(=O)c3c(F)cccc3F)c2F)c(-c2ccnc(N)n2)s1", "note": "[DBF, dabrafenib]", "values": [{"measurement": "Steady-state brain to plasma concentration ratio", "setting": "[1]", "result": "0.019±0.02"}, {"measurement": "Overall survival (OS)", "setting": "[2]", "result": 18.7, "unit": "months"}, {"measurement": "Progression-free survival (PFS)", "setting": "[2]", "result": 8.8, "unit": "months"}, {"measurement": "IC50", "setting": "[3]; 72 h", "result": 4.9, "unit": "nM"}, {"measurement": "Inhibition of pERK in tumors", "setting": "[4]; 6 hours post-final dose", "result": 89, "unit": "%"}, {"measurement": "Reduction in ki67 in tumors", "setting": "[4]; 6 hours post-final dose", "result": 28, "unit": "%"}, {"measurement": "Duration of pERK reduction in tumors post-dose", "setting": "[4]", "result": "up to 18 hours"}, {"measurement": "IC50", "setting": "[5]; A-375, 72 h", "result": 13.6, "unit": "nM"}]}, {"molecule": "O=C1c2ccccc2C(=O)N1CNc1ccc(Oc2ccc(Cl)cc2)cc1", "note": "[SM56]", "values": [{"measurement": "Reduction of PD-L1 expression compared to untreated cells", "setting": "[6]; 10 μM PD-L1i alone, 48 hours", "result": "about 40%"}, {"measurement": "PD-L1 expression over time", "setting": "[6]; 10 μM, 24-72 hours", "result": "reduction in PD-L1 expression in a time-dependent manner"}]}, {"molecule": "CC(=O)Nc1cccc(-n2c(=O)n(C3CC3)c(=O)c3c(Nc4ccc(I)cc4F)n(C)c(=O)c(C)c32)c1", "note": "[TRM, trametinib]", "values": [{"measurement": "Steady-state brain to plasma concentration ratio", "setting": "[1]", "result": "0.03±0.01"}, {"measurement": "IC50", "setting": "[3]; D4M.3A, 72 hours", "result": 8.6, "unit": "nM"}, {"measurement": "IC50", "setting": "[5]; A-375, A375, 72 hours", "result": 8.5, "unit": "nM"}]}, {"molecule": "Cn1ncnc1[C@H]1c2n[nH]c(=O)c3cc(F)cc(c23)N[C@@H]1c1ccc(F)cc1", "note": "[talazoparib]", "values": [{"measurement": "IC50", "setting": "[7]", "result": 2, "unit": "nM"}, {"measurement": "IC50", "setting": "[8]", "result": 58, "unit": "nM"}, {"measurement": "PD-L1 RNA level", "setting": "[9]", "result": "time-dependent increase in PD-L1 expression"}, {"measurement": "PD-L1 localizations and protein density (dSTORM)", "setting": "[10]", "result": "increased number of PD-L1 localizations and higher PD-L1 protein density"}, {"measurement": "PD-L1 expression relative to untreated cells", "setting": "[6]; 10 nM talazoparib and/or 10 μM PD-L1i, 48 hours", "result": 3, "unit": "folds"}, {"measurement": "PD-L1 protein expression", "setting": "[6]; 10 nM, 24-72 hours", "result": "time-dependent increase in PD-L1 expression"}, {"measurement": "PD-L1 protein expression", "setting": "[6]; increasing concentrations, 72 hours", "result": "induced PD-L1 expression in EMT6 cells in a dose-dependent manner"}, {"measurement": "IC50", "setting": "[11]; EMT6 (BRCA-mutated), 72 hours", "result": 10, "unit": "nM"}, {"measurement": "IC50", "setting": "[11]; EMT6 proliferation, NPs versus free drug (FIG. 32)", "result": 8, "unit": "nM"}, {"measurement": "IC50", "setting": "[12]", "result": 411, "unit": "nM"}, {"measurement": "inhibition at 1 µM", "setting": "[13]", "result": 70, "unit": "%"}]}]}
